Assay results: patent publication US11477982B2, “2-amino-5-oxyalkyl-pyrimidine derivatives and their use for controlling undesired plant growth” (Bayer CropScience Aktiengesellschaft, priority 2017, dated 2022)

Tests used:
Format in all cases: in vivo
[1] = tested on: ABUTH: Abutilon theophrasti; test: Pre-emergence herbicidal effect; details: dosage 320 g/ha
From the text: (§1) 1. Pre-Emergence Herbicidal Effect and Crop Plant Compatibility
(§2) Seeds of monocotyledonous and dicotyledonous weed plants and crop plants are placed in plastic or wood fiber pots and covered with soil. The compounds of the invention, formulated in the form of wettable powders (WP) or as emulsion concentrates (EC), are then applied onto the surface of the covering soil as aqueous suspension or emulsion with addition of 0.5% additive at a water application rate of 600 l/ha (converted).
(§3) After the treatment, the pots are placed in a greenhouse and kept under good growth conditions for the trial plants. After about 3 weeks, the effect of the preparations is scored visually in comparison with untreated controls as percentages. For example, 100% activity=the plants have died, 0% activity=like control plants.

[2] = tested on: ALOMY: Alopecurus myosuroides; test: Pre-emergence herbicidal effect; details: pre-emergence; dosage 320 g/ha
From the text: as §1, §2, §3

[3] = tested on: AMARE: Amaranthus retroflexus; test: Pre-emergence herbicidal effect; details: pre-emergence; dosage 320 g/ha
From the text: as §1, §2, §3

AVEFA: Avena fatua = test: Pre-emergence herbicidal effect
From the text: as §1, §2, §3

[4] = tested on: ECHCG: Echinochloa crus-galli; test: Pre-emergence herbicidal effect; details: pre-emergence; dosage 320 g/ha
From the text: as §1, §2, §3

HORMU: Hordeum murinum = test: Pre-emergence herbicidal effect; details: pre-emergence; dosage 320 g/ha
From the text: as §1, §2, §3

LOLRI: Lolium rigidum = test: Pre-emergence herbicidal effect; details: dosage 320 g/ha
From the text: as §1, §2, §3

[5] = tested on: MATIN: Matricaria inodora; test: Pre-emergence herbicidal effect; details: pre-emergence; dosage 320 g/ha
From the text: as §1, §2, §3

PHBPU: Ipomoea purpurea = test: Pre-emergence herbicidal effect; details: dosage 320 g/ha
From the text: as §1, §2, §3

[6] = tested on: POLCO: Polygonum convolvulus; test: Pre-emergence herbicidal effect; details: dosage 320 g/ha
From the text: as §1, §2, §3

SETVI: Setaria viridis = test: Pre-emergence herbicidal effect; details: pre-emergence; dosage 320 g/ha
From the text: as §1, §2, §3

STEME: Stellaria media [7] = test: Pre-emergence herbicidal effect; details: pre-emergence; dosage 320 g/ha
From the text: as §1, §2, §3

VERPE: Veronica persica = test: Pre-emergence herbicidal effect; details: dosage 320 g/ha
From the text: as §1, §2, §3

VIOTR: Viola tricolor = test: Pre-emergence herbicidal effect; details: dosage 320 g/ha
From the text: as §1, §2, §3

STEME: Stellaria media [8] = test: Post-emergence herbicidal effect; details: dosage 80 g/ha
Method: 2. Post-Emergence Herbicidal Effect and Crop Plant Compatibility
Seeds of monocotyledonous and dicotyledonous weeds and crop plants are placed in sandy loam in plastic or wood-fiber pots, covered with soil and cultivated in a greenhouse under controlled growth conditions, 2 to 3 weeks after sowing, the test plants are treated at the one-leaf stage. The compounds of the invention, formulated in the form of wettable powders (WP) or as emulsion concentrates (EC), are then sprayed onto the green parts of the plants as aqueous suspension or emulsion with addition of 0.5% additive at a water application rate of 600 l/ha (converted). After the test plants had been kept in the greenhouse under optimum growth conditions for about 3 weeks, the activity of the preparations is rated visually in comparison to untreated controls. For example, 100% activity=the plants have died, 0% activity=like control plants.

## Cc1nc(NC2c3ccccc3CC2C)ncc1C(C)(C)O (mixture of isomers) [Example 1.51]
[1]
  Herbicidal action against ABUTH: 100%
[2]
  Herbicidal action against ALOMY: 100%
[3]
  Herbicidal action against AMARE: 100%
AVEFA: Avena fatua; dosage 320 g/ha
  Herbicidal action against AVEFA: 80%
[4]
  Herbicidal action against ECHCG: 100%
HORMU: Hordeum murinum
  Herbicidal action against HORMU: 90%
LOLRI: Lolium rigidum
  Herbicidal action against LOLRI: 100%
[5]
  Herbicidal action against MATIN: 100%
PHBPU: Ipomoea purpurea
  Herbicidal action against PHBPU: 100%
[6]
  Herbicidal action against POLCO: 100%
SETVI: Setaria viridis
  Herbicidal action against SETVI: 100%
STEME: Stellaria media [7]
  Herbicidal action against STEME: 100%
VERPE: Veronica persica
  Herbicidal action against VERPE: 100%
VIOTR: Viola tricolor
  Herbicidal action against VIOTR: 100%

## CC(C)(O)c1cnc(NC2CCOc3ccccc32)nc1 (racemic) [Example 1.9]
[3]
  Herbicidal action against AMARE: 100%
[5]
  Herbicidal action against MATIN: 100%
[6]
  Herbicidal action against POLCO: 100%
VERPE: Veronica persica
  Herbicidal action against VERPE: 100%
VIOTR: Viola tricolor
  Herbicidal action against VIOTR: 100%

## Cc1cccc2c1CCCC2Nc1ncc(C(C)(C)O)cn1 (racemic) [Example 1.41]
[3]
  Herbicidal action against AMARE: 100%
[5]
  Herbicidal action against MATIN: 100%
[6]
  Herbicidal action against POLCO: 100%
VERPE: Veronica persica
  Herbicidal action against VERPE: 100%
VIOTR: Viola tricolor
  Herbicidal action against VIOTR: 100%

## COc1cccc2c1CCCC2Nc1ncc(C(C)(C)O)c(C)n1 (racemic) [Example 1.44]
[3]
  Herbicidal action against AMARE: 100%
[5]
  Herbicidal action against MATIN: 100%
[6]
  Herbicidal action against POLCO: 100%
VERPE: Veronica persica
  Herbicidal action against VERPE: 100%
VIOTR: Viola tricolor
  Herbicidal action against VIOTR: 100%

## Cc1ccc2c(c1)[C@H](Nc1ncc([C@H](C)O)c(N)n1)[C@@H](C)C2 (racemic) [drawing 5, reference compound]
AVEFA: Avena fatua; dosage 80 g/ha
  Herbicidal action against AVEFA: 20%
AVEFA: Avena fatua; dosage 320 g/ha
  Herbicidal action against AVEFA: 60%

## Cc1ccc2c(c1)[C@H](Nc1ncc([C@H](C)O)c(N)n1)[C@@H](C)C2 (racemic) [drawing 8, reference compound]
HORMU: Hordeum murinum
  Herbicidal action against HORMU: 20%
PHBPU: Ipomoea purpurea
  Herbicidal action against PHBPU: 20%

## Cc1ccc2c(c1)[C@H](Nc1ncc([C@H](C)O)c(N)n1)[C@@H](C)C2 (racemic) [drawing 15, reference compound]
STEME: Stellaria media [8]
  Herbicidal action against STEME: 70%

## Cc1ccc2c(c1)[C@H](Nc1ncc(C(C)OCc3ccc(F)cc3)cn1)[C@@H](C)C2 (stereo partly drawn) [Example 1.3]
[3]
  Herbicidal action against AMARE: 100%
[5]
  Herbicidal action against MATIN: 100%
[6]
  Herbicidal action against POLCO: 80%
VERPE: Veronica persica
  Herbicidal action against VERPE: 100%
VIOTR: Viola tricolor
  Herbicidal action against VIOTR: 100%

## Cc1ccc2c(c1)[C@H](Nc1ncc(C(C)(C#N)O[Si](C)(C)C)cn1)[C@@H](C)C2 (stereo partly drawn) [Example 1.16]
[3]
  Herbicidal action against AMARE: 100%
[5]
  Herbicidal action against MATIN: 100%
[6]
  Herbicidal action against POLCO: 100%
VERPE: Veronica persica
  Herbicidal action against VERPE: 100%
VIOTR: Viola tricolor
  Herbicidal action against VIOTR: 100%

## Cc1ccc2c(c1)[C@H](Nc1ncc(C(C)O)c(C(C)F)n1)[C@@H](C)C2 (stereo partly drawn) [Example 1.19]
[3]
  Herbicidal action against AMARE: 100%
[5]
  Herbicidal action against MATIN: 100%
[6]
  Herbicidal action against POLCO: 100%
VERPE: Veronica persica
  Herbicidal action against VERPE: 100%
VIOTR: Viola tricolor
  Herbicidal action against VIOTR: 100%

## Cc1ccc2c(c1)[C@H](Nc1ncc(C(C)(O)c3ccccc3)cn1)[C@@H](C)C2 (stereo partly drawn) [Example 1.21]
[3]
  Herbicidal action against AMARE: 100%
[5]
  Herbicidal action against MATIN: 100%
[6]
  Herbicidal action against POLCO: 100%
VERPE: Veronica persica
  Herbicidal action against VERPE: 100%
VIOTR: Viola tricolor
  Herbicidal action against VIOTR: 100%
